Counter-ions that a name gives are not always drawn. Where only a bound is given, the exact number is not on record here.

One test concerns the target JH2 domain of human Tyk2 (Homo sapiens (Human), UniProt P29597). The test is described as follows: JH2 Biochemical Assay (TR-FRET probe displacement). Conditions: TR-FRET probe displacement, JH2 domain of human Tyk2. Format: binding. On the technique in general: TR-FRET usually uses a lanthanide donor and a delayed reading to cut background.
A further test deals with Tyk2 (Homo sapiens (Human), UniProt P29597). Kind of test: pSTAT4 Cell Assay (MSD, NK92 cells). Conditions: MSD. It counts as cell-based.
Chain of Tyk2 (P29597 whole entry): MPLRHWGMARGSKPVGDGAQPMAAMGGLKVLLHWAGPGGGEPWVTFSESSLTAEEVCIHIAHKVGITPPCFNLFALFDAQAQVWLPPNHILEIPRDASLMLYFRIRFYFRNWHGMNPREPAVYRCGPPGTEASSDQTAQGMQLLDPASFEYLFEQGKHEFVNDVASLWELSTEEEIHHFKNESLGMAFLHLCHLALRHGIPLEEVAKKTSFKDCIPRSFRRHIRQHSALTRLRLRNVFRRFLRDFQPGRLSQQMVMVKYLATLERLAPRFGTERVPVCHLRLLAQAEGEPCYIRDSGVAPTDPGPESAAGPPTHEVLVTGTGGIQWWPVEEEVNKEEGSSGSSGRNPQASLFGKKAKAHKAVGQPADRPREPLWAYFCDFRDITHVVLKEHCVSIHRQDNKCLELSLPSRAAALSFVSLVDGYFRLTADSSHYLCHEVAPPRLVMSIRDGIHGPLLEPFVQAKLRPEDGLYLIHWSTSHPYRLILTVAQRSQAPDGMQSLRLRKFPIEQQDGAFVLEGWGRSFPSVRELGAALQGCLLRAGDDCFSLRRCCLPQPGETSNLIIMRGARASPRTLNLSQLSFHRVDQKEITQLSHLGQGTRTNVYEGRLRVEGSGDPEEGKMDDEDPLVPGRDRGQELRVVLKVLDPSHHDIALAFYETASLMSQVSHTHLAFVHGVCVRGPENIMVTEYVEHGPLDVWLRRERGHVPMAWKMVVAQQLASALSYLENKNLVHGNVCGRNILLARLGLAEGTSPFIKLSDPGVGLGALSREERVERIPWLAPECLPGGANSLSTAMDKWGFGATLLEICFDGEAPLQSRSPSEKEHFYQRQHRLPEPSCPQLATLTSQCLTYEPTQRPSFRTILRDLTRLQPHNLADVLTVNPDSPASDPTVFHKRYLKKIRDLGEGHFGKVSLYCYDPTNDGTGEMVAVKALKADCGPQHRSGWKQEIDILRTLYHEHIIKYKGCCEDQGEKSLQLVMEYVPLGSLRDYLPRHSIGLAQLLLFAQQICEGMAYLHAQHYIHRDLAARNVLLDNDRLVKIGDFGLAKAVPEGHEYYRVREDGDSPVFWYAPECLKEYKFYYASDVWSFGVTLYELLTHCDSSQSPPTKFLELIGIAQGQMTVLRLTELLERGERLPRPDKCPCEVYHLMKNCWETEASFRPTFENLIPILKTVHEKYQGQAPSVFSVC

Chain of JH2 domain of human Tyk2 (P29597 575-876): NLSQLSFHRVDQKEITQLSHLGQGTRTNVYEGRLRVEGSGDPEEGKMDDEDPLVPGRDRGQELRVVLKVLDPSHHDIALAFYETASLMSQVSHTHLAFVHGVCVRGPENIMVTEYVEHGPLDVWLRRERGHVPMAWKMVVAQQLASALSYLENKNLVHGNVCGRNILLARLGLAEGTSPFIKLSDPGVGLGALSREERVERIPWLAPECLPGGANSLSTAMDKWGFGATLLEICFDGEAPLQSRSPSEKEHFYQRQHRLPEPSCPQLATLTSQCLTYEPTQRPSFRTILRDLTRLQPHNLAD

A word on the IC50: it is the concentration that inhibits the measured activity by half. Low values mean greater potency in that assay, high ones weaker potency in that assay. For `CCOc1cnc(NC(C)=O)cc1Nc1cc(-c2cccnc2)nc(C(C)(F)F)n1` [Example 96, N-(4-((2-(1,1-difluoroethyl)-6-(pyridin-3-yl)pyrimidin-4-yl)amino)-5-ethoxypyridin-2-yl)acetamide], the IC50 at JH2 domain of human Tyk2 is at most 10 nM; on Tyk2 it was 10 to 100 nM.
For `CCn1cc(-c2cc(Nc3cc(NC(C)=O)ncc3OC)nc(C(C)(F)F)n2)cn1` [Example 97, N-(4-((2-(1,1-difluoroethyl)-6-(1-ethyl-1H-pyrazol-4-yl)pyrimidin-4-yl)amino)-5-methoxypyridin-2-yl)acetamide], the IC50 at JH2 domain of human Tyk2 and against Tyk2 was 10 to 100 nM each time.
Take `CC(=O)Nc1cc(Nc2cc(C)nc(C(C)(F)F)n2)c(Oc2cncc(C)n2)cn1` [Example 98, N-(4-((2-(1,1-difluoroethyl)-6-methylpyrimidin-4-yl)amino)-5-((6-methylpyrazin-2-yl)oxy)pyridin-2-yl)acetamide]: the IC50 on JH2 domain of human Tyk2 and against Tyk2 was at least 1000 nM in each case.
In the case of `CC(=O)Nc1cc(Nc2cc(C)nc(C(C)(F)F)n2)c(OCC2(F)CC2)cn1` [Example 99, N-(4-((2-(1,1-difluoroethyl)-6-methylpyrimidin-4-yl)amino)-5-((1-fluorocyclopropyl)methoxy)pyridin-2-yl)acetamide], the IC50 at JH2 domain of human Tyk2 and against Tyk2 was at most 10 nM throughout.
For `CC(=O)Nc1cc(Nc2cc(C)nc(C(C)(F)F)n2)c(OCc2ccc(F)cn2)cn1` [Example 125, N-(4-((2-(1,1-difluoroethyl)-6-methylpyrimidin-4-yl)amino)-5-((5-fluoropyridin-2-yl)methoxy)pyridin-2-yl)acetamide], the IC50 was at most 10 nM at JH2 domain of human Tyk2 and 10 to 100 nM against Tyk2.
As for `CC(=O)Nc1cc(Nc2cc(C)nc(C(C)(F)F)n2)c(OCc2cnn(C)c2C)cn1` [Example 138, N-(4-((2-(1,1-difluoroethyl)-6-methylpyrimidin-4-yl)amino)-5-((1,5-dimethyl-1H-pyrazol-4-yl)methoxy)pyridin-2-yl)acetamide], the IC50 on JH2 domain of human Tyk2 is 100 to 1000 nM; against Tyk2, at least 1000 nM.
In the case of `CC(=O)Nc1cc(Nc2cccc(C(C)(F)F)n2)c(OCCO)cn1` [Example 140, N-(4-((6-(1,1-difluoroethyl)pyridin-2-yl)amino)-5-(2-hydroxyethoxy)pyridin-2-yl)acetamide], the IC50 on JH2 domain of human Tyk2 and at Tyk2 was at most 10 nM each time.
`CC(=O)Nc1cc(Nc2cc(C)nc(C34CC(CO3)C4)n2)c(-c2ccc(COC(F)F)cn2)cn1` [Example 142, N-(4′-((2-(2-oxabicyclo[2.1.1]hexan-1-yl)-6-methylpyrimidin-4-yl)amino)-5-((difluoromethoxy)methyl)-[2,3′-bipyridin]-6′-yl)acetamide]: the results for the IC50 on JH2 domain of human Tyk2 and against Tyk2 were at most 10 nM and 10 to 100 nM, respectively.
The matching figures for `CC(=O)Nc1cc(Nc2ccnc(C(C)(F)F)n2)c(-c2ccc3c(n2)OCC(C)(C)O3)cn1` [Example 144, N-(4-((2-(1,1-difluoroethyl)pyrimidin-4-yl)amino)-5-(2,2-dimethyl-2,3-dihydro-[1,4]dioxino[2,3-b]pyridin-6-yl)pyridin-2-yl)acetamide trifluoroacetate]: at most 10 nM and at most 10 nM.
`CC(=O)Nc1cc(Nc2cccc(C(C)(F)F)n2)c(-c2ccn(C)n2)cn1` [Example 147, N-(4-((6-(1,1-difluoroethyl)pyridin-2-yl)amino)-5-(1-methyl-1H-pyrazol-3-yl)pyridin-2-yl)acetamide]: the IC50 on JH2 domain of human Tyk2 and against Tyk2 was at most 10 nM in each case.
Regarding `CC(=O)Nc1cc(Nc2cc(C)nc(C(C)(F)F)n2)c(-c2cccc(OC(F)F)n2)cn1` [Example 150, N-(4′-((2-(1,1-difluoroethyl)-6-methylpyrimidin-4-yl)amino)-6-(difluoromethoxy)-[2,3′-bipyridin]-6′-yl)acetamide], the IC50 at JH2 domain of human Tyk2 and against Tyk2 was at most 10 nM throughout.
Take `CCC(F)(F)c1cnc(NC(C)=O)cc1Nc1cc(C)nc(C(C)(F)F)n1` [Example 154, N-(4-((2-(1,1-difluoroethyl)-6-methylpyrimidin-4-yl)amino)-5-(1,1-difluoropropyl)pyridin-2-yl)acetamide]: the figures for the IC50 at JH2 domain of human Tyk2 and against Tyk2 were 10 to 100 nM and at least 1000 nM, respectively.
Take `COc1cc(-c2cnc(NC(C)=O)cc2Nc2cc(C)nc(C(C)(F)F)n2)nc(C)n1` [Example 155, N-(4-((2-(1,1-difluoroethyl)-6-methylpyrimidin-4-yl)amino)-5-(6-methoxy-2-methylpyrimidin-4-yl)pyridin-2-yl)acetamide]: the IC50 on JH2 domain of human Tyk2 was at most 10 nM; against Tyk2 it was 10 to 100 nM.
Take `COc1nc(C)cc(-c2cnc(NC(C)=O)cc2Nc2cc(C)nc(C(C)(F)F)n2)n1` [Example 156, N-(4-((2-(1,1-difluoroethyl)-6-methylpyrimidin-4-yl)amino)-5-(2-methoxy-6-methylpyrimidin-4-yl)pyridin-2-yl)acetamide]: the IC50 on JH2 domain of human Tyk2 and at Tyk2 was at most 10 nM each time.
`CC(=O)Nc1cc(Nc2cc(C)nc(C(C)(F)F)n2)c(-c2ncn(C)n2)cn1` [Example 157, N-(4-((2-(1,1-difluoroethyl)-6-methylpyrimidin-4-yl)amino)-5-(1-methyl-1H-1,2,4-triazol-3-yl)pyridin-2-yl)acetamide]: the IC50 at JH2 domain of human Tyk2 is at most 10 nM; at Tyk2, 100 to 1000 nM.
As to `CC(=O)Nc1cc(Nc2cccc(C(C)(F)F)n2)c(-c2ccc(=O)n(C)n2)cn1` [Example 158, N-(4-((6-(1,1-difluoroethyl)pyridin-2-yl)amino)-5-(1-methyl-6-oxo-1,6-dihydropyridazin-3-yl)pyridin-2-yl)acetamide], the IC50 on JH2 domain of human Tyk2 and on Tyk2 was at most 10 nM throughout.
On to `CC(=O)Nc1cc(Nc2cccc(C(C)(F)F)n2)c(-c2cn(C)c(=O)cn2)cn1` [Example 159, N-(4-((6-(1,1-difluoroethyl)pyridin-2-yl)amino)-5-(4-methyl-5-oxo-4,5-dihydropyrazin-2-yl)pyridin-2-yl)acetamide], for which the values for the IC50 on JH2 domain of human Tyk2 and against Tyk2 were at most 10 nM and 10 to 100 nM, respectively.
As for `CC(=O)Nc1cc(Nc2cccc(C(C)(F)F)n2)c(-c2ccn(C)c(=O)n2)cn1` [Example 160, N-(4-((6-(1,1-difluoroethyl)pyridin-2-yl)amino)-5-(1-methyl-2-oxo-1,2-dihydropyrimidin-4-yl)pyridin-2-yl)acetamide], the IC50 at JH2 domain of human Tyk2 and at Tyk2 was at most 10 nM throughout.
In the case of `CC(=O)Nc1cc(Nc2cccc(C(C)(F)F)n2)c(-c2cc(=O)n(C)cn2)cn1` [Example 161, N-(4-((6-(1,1-difluoroethyl)pyridin-2-yl)amino)-5-(1-methyl-6-oxo-1,6-dihydropyrimidin-4-yl)pyridin-2-yl)acetamide], the IC50 on JH2 domain of human Tyk2 is at most 10 nM; against Tyk2, 10 to 100 nM.
The matching figures for `COc1cc(-c2cnc(NC(C)=O)cc2Nc2cccc(C(C)(F)F)n2)ncn1` [Example 162, N-(4-((6-(1,1-difluoroethyl)pyridin-2-yl)amino)-5-(6-methoxypyrimidin-4-yl)pyridin-2-yl)acetamide]: at most 10 nM and at most 10 nM.
Turning to `COc1cc(-c2cnc(NC(C)=O)cc2Nc2ccnc(C(C)(F)F)n2)nc(C)n1` [Example 163, N-(4-((2-(1,1-difluoroethyl)pyrimidin-4-yl)amino)-5-(6-methoxy-2-methylpyrimidin-4-yl)pyridin-2-yl)acetamide], the IC50 on JH2 domain of human Tyk2 was at most 10 nM; against Tyk2 it was 10 to 100 nM.
Turning to `COc1nc(C)cc(-c2cnc(NC(C)=O)cc2Nc2ccnc(C(C)(F)F)n2)n1` [Example 164, N-(4-((2-(1,1-difluoroethyl)pyrimidin-4-yl)amino)-5-(2-methoxy-6-methylpyrimidin-4-yl)pyridin-2-yl)acetamide], the concentration for half-maximal inhibition (IC50) is at most 10 nM at JH2 domain of human Tyk2 and 10 to 100 nM on Tyk2.
Consider `CC(=O)Nc1cc(Nc2ccnc(C(C)(F)F)n2)c(-c2ncn(C)n2)cn1` [Example 165, N-(4-((2-(1,1-difluoroethyl)pyrimidin-4-yl)amino)-5-(1-methyl-1H-1,2,4-triazol-3-yl)pyridin-2-yl)acetamide], for which the IC50 at JH2 domain of human Tyk2 lay within 10 to 100 nM; at Tyk2 it was 100 to 1000 nM.
Regarding `CCc1cc(Nc2cc(NC(C)=O)ncc2-c2ncn(C)n2)nc(C(C)(F)F)n1` [Example 166, N-(4-((2-(1,1-difluoroethyl)-6-ethylpyrimidin-4-yl)amino)-5-(1-methyl-1H-1,2,4-triazol-3-yl)pyridin-2-yl)acetamide], the values for the IC50 at JH2 domain of human Tyk2 and on Tyk2 were at most 10 nM and 10 to 100 nM, respectively.
The matching figures for `CCc1cc(Nc2cc(NC(C)=O)ncc2-c2nnc(C)s2)nc(C(C)(F)F)n1` [Example 167, N-(4-((2-(1,1-difluoroethyl)-6-ethylpyrimidin-4-yl)amino)-5-(5-methyl-1,3,4-thiadiazol-2-yl)pyridin-2-yl)acetamide]: at most 10 nM and at most 10 nM.
`CCc1cc(Nc2cc(NC(C)=O)ncc2-c2nnc(C)o2)nc(C(C)(F)F)n1` [Example 168, N-(4-((2-(1,1-difluoroethyl)-6-ethylpyrimidin-4-yl)amino)-5-(5-methyl-1,3,4-oxadiazol-2-yl)pyridin-2-yl)acetamide]: the IC50 was at most 10 nM at JH2 domain of human Tyk2 and 10 to 100 nM at Tyk2.
The matching figures for `CC(=O)Nc1cc(Nc2cccc(OC(F)F)n2)c(-c2ccncn2)cn1` [Example 171, N-(4-((6-(difluoromethoxy)pyridin-2-yl)amino)-5-(pyrimidin-4-yl)pyridin-2-yl)acetamide]: at most 10 nM and 100 to 1000 nM.
The matching figures for `CC(=O)Nc1cc(Nc2cccc(C(C)(F)F)n2)c(-c2ccnc(C)n2)cn1` [Example 172, N-(4-((6-(1,1-difluoroethyl)pyridin-2-yl)amino)-5-(2-methylpyrimidin-4-yl)pyridin-2-yl)acetamide]: at most 10 nM and at most 10 nM.
Consider `CC(=O)Nc1cc(Nc2ccnc(C(C)(F)F)n2)c(-c2ccnc(C)n2)cn1` [Example 173, N-(4-((2-(1,1-difluoroethyl)pyrimidin-4-yl)amino)-5-(2-methylpyrimidin-4-yl)pyridin-2-yl)acetamide], for which the 50% inhibitory concentration (IC50) on JH2 domain of human Tyk2 and on Tyk2 was at most 10 nM in each case.

Values taken from patent US20260028365A1 (BIOGEN MA INC., priority 2022, published 2026).
